Data reported in ChEMBL document CHEMBL1201862, “PubChem BioAssay data set” (2004).
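Test compounds were applied to cells in 96-well plates for 48 hours at 5 doses. Here, GI50 denotes the concentration required for 50% inhibition of growth.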 Calls of active or inactive are those of the source. Cut-off read from the data, not from the text of the source: active = GI50 up to about 1.1 µM and inactive = higher.

Columns and labels:
Experiment in all cases: NCI tumour cell line growth inhibition, 48 h
RPMI-8226 = tested on: RPMI-8226
HCC 2998 = tested on: HCC 2998
UACC-257 = tested on: UACC-257
HL-60 = tested on: HL-60
MCF7 = tested on: MCF7
SK-MEL-28 = tested on: SK-MEL-28
MOLT-4 = tested on: MOLT-4
HT-29 = tested on: HT-29
HCT-116 = tested on: HCT-116
NCI-H522 = tested on: NCI-H522
SK-MEL-2 = tested on: SK-MEL-2
SK-MEL-5 = tested on: SK-MEL-5
CCRF-CEM = tested on: CCRF-CEM
SNB-19 = tested on: SNB-19
SNB-75 = tested on: SNB-75
K562 = tested on: K562
SN12C = tested on: SN12C
NCI-H226 = tested on: NCI-H226
U-251 = tested on: U-251
RXF 393 = tested on: RXF 393

Row | SMILES | GI50 (RPMI-8226) | GI50 (HCC 2998) | GI50 (UACC-257) | GI50 (HL-60) | GI50 (MCF7) | GI50 (SK-MEL-28) | GI50 (MOLT-4) | GI50 (HT-29) | GI50 (HCT-116) | GI50 (NCI-H522) | GI50 (SK-MEL-2) | GI50 (SK-MEL-5) | GI50 (CCRF-CEM) | GI50 (SNB-19) | GI50 (SNB-75) | GI50 (K562) | GI50 (SN12C) | GI50 (NCI-H226) | GI50 (U-251) | GI50 (RXF 393)
1 | CC(=O)Oc1c(OC(C)=O)c(-c2ccc(O)c(O)c2)c(O)c(O)c1-c1ccc(O)cc1 | > 100 µM (inactive) | > 100 µM (inactive) | > 100 µM (inactive) | 54.2 µM (inactive) | > 100 µM (inactive) | > 100 µM (inactive) | > 100 µM (inactive) | > 100 µM (inactive) | > 100 µM (inactive) | 17.7 µM (inactive) | 29.4 µM (inactive) | 19.7 µM (inactive) | 61 µM (inactive) | > 100 µM (inactive) | 97.5 µM (inactive) | 50.7 µM (inactive) | > 100 µM (inactive) | > 100 µM (inactive) | > 100 µM (inactive) | 
2 | COc1nc(Cl)nc(N[C@H](C)c2c3ccccc3cc3ccccc23)n1 | 5.3 µM (inactive) |  | 16 µM (inactive) | 19.1 µM (inactive) | 14.2 µM (inactive) | 2.3 µM (inactive) | 14.1 µM (inactive) | 15.5 µM (inactive) | 12.4 µM (inactive) | 7.6 µM (inactive) | 15.8 µM (inactive) | 5.38 µM (inactive) | 10.4 µM (inactive) | 16.3 µM (inactive) | 21.8 µM (inactive) | 8.49 µM (inactive) | 0.879 µM (active) | 13.1 µM (inactive) | 16.4 µM (inactive) | 12.5 µM (inactive)
3 | O=C(O)CC/C(=N\Nc1nsc2ccccc12)c1ccccc1 | 18.5 µM (inactive) | 30.5 µM (inactive) | 57.3 µM (inactive) | 25.4 µM (inactive) |  | 34.6 µM (inactive) | 23.4 µM (inactive) | 34.4 µM (inactive) | 41.6 µM (inactive) |  | > 100 µM (inactive) | 79.6 µM (inactive) | 26.6 µM (inactive) | > 100 µM (inactive) | 0.82 µM (active) | 26.8 µM (inactive) | 38.1 µM (inactive) |  | 39.1 µM (inactive) | 39.1 µM (inactive)
4 | Cc1cccc2sc(-c3ccc(O)cc3)nc12 | 20.9 µM (inactive) |  | 18.8 µM (inactive) | 15.9 µM (inactive) | 12.2 µM (inactive) | 18.5 µM (inactive) | 43.7 µM (inactive) | 15.3 µM (inactive) | 15.6 µM (inactive) | 16.3 µM (inactive) | 17.7 µM (inactive) | 5.81 µM (inactive) | 16.9 µM (inactive) | 17.8 µM (inactive) | 12.6 µM (inactive) | 33.3 µM (inactive) | 18.2 µM (inactive) | 14.8 µM (inactive) | 19.3 µM (inactive) | 16.9 µM (inactive)
5 | O=c1cnn(C/C=C/CP(=O)(O)O)c(=O)[nH]1 | > 100 µM (inactive) | > 100 µM (inactive) | > 100 µM (inactive) | > 100 µM (inactive) | > 100 µM (inactive) | > 100 µM (inactive) |  |  |  | > 100 µM (inactive) | > 100 µM (inactive) | > 100 µM (inactive) | > 10 µM (inactive) | > 100 µM (inactive) | > 100 µM (inactive) | > 100 µM (inactive) | > 100 µM (inactive) | > 100 µM (inactive) | > 100 µM (inactive) | > 100 µM (inactive)
6 | O=C(Nc1ccc(I)cc1C(=O)NCCO)c1cccs1 | 53.5 µM (inactive) | > 100 µM (inactive) | > 100 µM (inactive) | > 100 µM (inactive) | > 100 µM (inactive) | > 100 µM (inactive) | > 100 µM (inactive) | > 100 µM (inactive) | > 100 µM (inactive) | > 100 µM (inactive) | > 100 µM (inactive) | > 100 µM (inactive) | > 100 µM (inactive) | > 100 µM (inactive) |  | > 100 µM (inactive) | > 100 µM (inactive) | > 100 µM (inactive) | > 100 µM (inactive) | > 100 µM (inactive)
7 | Nc1nc(N)nc(-c2ccccc2NS(=O)(=O)c2ccc([N+](=O)[O-])cc2)n1 | 45.9 µM (inactive) | > 70.5 µM (inactive) | 43 µM (inactive) | 19.3 µM (inactive) | > 81.5 µM (inactive) | > 100 µM (inactive) | > 54.5 µM (inactive) | 53.7 µM (inactive) | 67.5 µM (inactive) | 55.8 µM (inactive) | 81.5 µM (inactive) | 29 µM (inactive) | 27.5 µM (inactive) | > 100 µM (inactive) | > 52.2 µM (inactive) | > 10 µM (inactive) | 97.3 µM (inactive) | 61.2 µM (inactive) | > 84.9 µM (inactive) | > 52 µM (inactive)
8 | CCOC(=O)C(C)OC(=O)c1ccc(C)cc1 (configuration not stated) |  | > 100 µM (inactive) | > 100 µM (inactive) | > 100 µM (inactive) |  | > 100 µM (inactive) | > 100 µM (inactive) | > 100 µM (inactive) | > 100 µM (inactive) | > 100 µM (inactive) | > 100 µM (inactive) | > 100 µM (inactive) | > 100 µM (inactive) | > 100 µM (inactive) | > 100 µM (inactive) | 64.1 µM (inactive) | > 100 µM (inactive) |  | > 100 µM (inactive) | > 100 µM (inactive)
